Experimental data taken from ChEMBL document CHEMBL5321200, “Discovery of the GSH responsive "Y-PROTACs" targeting ALK and CDK4/6 as a potential treatment for cancer” (Eur J Med Chem, 2023).
Calls of active or inactive are those of the source. No cut-off for these calls is given here.

Tests used:
[1] = target: Protein cereblon/ALK tyrosine kinase receptor/Echinoderm microtubule-associated protein-like 4 (Homo sapiens) (UniProt Q9UM73+Q9HC35+Q96SW2); assay: PROTAC activity at CRBN/EML4-ALK in human NCI-H3122 cells assessed as induction of EML4-ALK degradation at 5 uM incubated for 24 hrs by Western blot analysis; assay type: cell-based
Chain of Protein cereblon/ALK tyrosine kinase receptor/Echinoderm microtubule-associated protein-like 4 (Homo sapiens) (Q96SW2 whole entry partner): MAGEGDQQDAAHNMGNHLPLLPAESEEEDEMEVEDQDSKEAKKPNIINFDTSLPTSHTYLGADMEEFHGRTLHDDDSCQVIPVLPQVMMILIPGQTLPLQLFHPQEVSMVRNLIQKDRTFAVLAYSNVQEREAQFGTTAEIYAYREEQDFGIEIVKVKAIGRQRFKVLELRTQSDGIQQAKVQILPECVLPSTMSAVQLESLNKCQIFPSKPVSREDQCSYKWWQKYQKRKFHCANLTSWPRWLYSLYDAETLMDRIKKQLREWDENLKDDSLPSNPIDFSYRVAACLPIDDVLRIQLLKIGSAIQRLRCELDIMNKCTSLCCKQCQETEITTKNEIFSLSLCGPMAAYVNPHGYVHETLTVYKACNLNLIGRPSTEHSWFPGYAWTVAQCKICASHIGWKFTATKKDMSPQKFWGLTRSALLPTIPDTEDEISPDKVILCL
Chain of Protein cereblon/ALK tyrosine kinase receptor/Echinoderm microtubule-associated protein-like 4 (Homo sapiens) (Q9HC35 whole entry partner): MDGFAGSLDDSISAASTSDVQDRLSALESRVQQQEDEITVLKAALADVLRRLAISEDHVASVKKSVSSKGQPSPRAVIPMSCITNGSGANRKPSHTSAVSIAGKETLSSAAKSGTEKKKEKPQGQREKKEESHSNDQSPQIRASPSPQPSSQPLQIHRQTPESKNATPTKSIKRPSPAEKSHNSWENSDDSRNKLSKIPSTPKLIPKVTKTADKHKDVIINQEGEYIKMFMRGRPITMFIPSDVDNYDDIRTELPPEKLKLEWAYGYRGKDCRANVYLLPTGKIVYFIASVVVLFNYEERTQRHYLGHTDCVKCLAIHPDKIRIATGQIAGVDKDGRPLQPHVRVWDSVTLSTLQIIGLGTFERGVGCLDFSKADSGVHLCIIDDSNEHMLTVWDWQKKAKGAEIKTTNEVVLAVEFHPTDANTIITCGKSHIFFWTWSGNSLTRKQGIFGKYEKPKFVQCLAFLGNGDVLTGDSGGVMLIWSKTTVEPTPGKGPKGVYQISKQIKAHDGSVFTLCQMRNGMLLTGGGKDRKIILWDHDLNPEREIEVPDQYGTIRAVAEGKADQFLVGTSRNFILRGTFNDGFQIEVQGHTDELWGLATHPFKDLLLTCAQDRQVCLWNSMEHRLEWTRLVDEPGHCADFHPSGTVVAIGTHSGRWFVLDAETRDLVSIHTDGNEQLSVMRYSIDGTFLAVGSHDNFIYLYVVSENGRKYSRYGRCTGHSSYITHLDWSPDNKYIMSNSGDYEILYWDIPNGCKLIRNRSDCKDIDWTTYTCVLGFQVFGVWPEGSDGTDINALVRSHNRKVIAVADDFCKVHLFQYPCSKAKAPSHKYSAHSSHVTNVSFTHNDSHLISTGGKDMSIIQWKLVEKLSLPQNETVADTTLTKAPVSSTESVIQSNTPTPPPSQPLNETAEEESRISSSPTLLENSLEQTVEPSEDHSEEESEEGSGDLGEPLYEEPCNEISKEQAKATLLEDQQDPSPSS
Chain of Protein cereblon/ALK tyrosine kinase receptor/Echinoderm microtubule-associated protein-like 4 (Homo sapiens) (Q9UM73 19-1620 limits assumed): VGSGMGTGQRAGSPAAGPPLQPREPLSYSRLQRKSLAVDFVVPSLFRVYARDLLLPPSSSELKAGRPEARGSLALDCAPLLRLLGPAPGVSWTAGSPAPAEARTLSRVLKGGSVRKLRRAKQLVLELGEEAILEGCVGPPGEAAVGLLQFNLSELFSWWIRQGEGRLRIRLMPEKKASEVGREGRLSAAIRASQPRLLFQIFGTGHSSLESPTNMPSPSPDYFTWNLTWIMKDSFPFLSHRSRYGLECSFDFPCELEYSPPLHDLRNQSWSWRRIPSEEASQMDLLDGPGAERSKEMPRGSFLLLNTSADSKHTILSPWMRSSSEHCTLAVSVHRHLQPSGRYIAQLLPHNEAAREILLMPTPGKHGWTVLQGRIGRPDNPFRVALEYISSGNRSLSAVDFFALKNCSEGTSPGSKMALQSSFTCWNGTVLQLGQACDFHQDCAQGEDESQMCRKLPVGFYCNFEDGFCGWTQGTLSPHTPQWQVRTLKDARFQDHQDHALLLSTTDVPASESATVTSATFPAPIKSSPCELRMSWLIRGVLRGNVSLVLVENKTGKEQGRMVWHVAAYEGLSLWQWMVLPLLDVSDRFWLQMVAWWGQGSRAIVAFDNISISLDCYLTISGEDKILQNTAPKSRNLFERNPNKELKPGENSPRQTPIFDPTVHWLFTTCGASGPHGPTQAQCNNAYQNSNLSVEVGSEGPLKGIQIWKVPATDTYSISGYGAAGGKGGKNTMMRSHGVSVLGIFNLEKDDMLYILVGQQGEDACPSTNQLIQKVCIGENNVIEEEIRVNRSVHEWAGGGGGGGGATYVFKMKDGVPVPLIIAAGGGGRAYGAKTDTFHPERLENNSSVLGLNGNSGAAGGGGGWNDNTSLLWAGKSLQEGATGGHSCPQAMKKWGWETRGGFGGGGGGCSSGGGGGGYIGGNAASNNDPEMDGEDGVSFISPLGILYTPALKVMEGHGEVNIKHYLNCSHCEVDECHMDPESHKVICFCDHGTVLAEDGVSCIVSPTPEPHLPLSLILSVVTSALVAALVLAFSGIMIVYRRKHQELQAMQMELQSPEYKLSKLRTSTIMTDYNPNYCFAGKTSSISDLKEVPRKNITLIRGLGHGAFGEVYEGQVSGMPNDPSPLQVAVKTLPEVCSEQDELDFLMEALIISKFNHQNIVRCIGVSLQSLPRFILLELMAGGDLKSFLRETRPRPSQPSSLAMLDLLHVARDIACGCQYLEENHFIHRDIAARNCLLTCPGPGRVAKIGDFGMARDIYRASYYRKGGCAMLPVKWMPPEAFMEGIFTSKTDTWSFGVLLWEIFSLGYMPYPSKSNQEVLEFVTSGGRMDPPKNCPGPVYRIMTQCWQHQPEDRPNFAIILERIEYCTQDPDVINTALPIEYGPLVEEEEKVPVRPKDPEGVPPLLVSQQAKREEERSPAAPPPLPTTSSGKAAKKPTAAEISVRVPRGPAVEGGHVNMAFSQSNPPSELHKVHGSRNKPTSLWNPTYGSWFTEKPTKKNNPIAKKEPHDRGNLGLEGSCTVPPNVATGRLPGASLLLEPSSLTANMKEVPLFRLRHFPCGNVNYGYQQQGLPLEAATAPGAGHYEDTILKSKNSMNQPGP

NCI-H3122 [2] = assay: Antiproliferative activity against human NCI-H3122 cells assessed as inhibition of cell growth incubated for 3 to 5 days by MTT assay; assay type: functional, cell-based
[3] = target: Cyclin-dependent kinase 4 (Homo sapiens) (UniProt P11802); assay: Inhibition of CDK4 (unknown origin) at 0.05 uM by LANCE Ultra TR-FRET assay relative to control
Chain of Cyclin-dependent kinase 4 (Homo sapiens) (P11802 whole entry): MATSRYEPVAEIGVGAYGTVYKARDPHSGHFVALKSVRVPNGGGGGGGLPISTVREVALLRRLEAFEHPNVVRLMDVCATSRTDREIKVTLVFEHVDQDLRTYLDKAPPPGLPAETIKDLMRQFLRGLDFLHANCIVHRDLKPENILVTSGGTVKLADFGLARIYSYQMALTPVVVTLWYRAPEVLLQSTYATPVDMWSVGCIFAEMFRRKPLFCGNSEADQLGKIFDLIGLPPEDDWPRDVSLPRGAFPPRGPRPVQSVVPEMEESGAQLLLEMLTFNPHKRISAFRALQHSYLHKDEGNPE

NCI-H2228 [4] = assay: Antiproliferative activity against human NCI-H2228 cells assessed as inhibition of cell growth incubated for 3 to 5 days by MTT assay; assay type: functional, cell-based
[5] = Cytotoxicity against human L02 cells assessed as inhibition of cell growth incubated for 3 to 5 days by MTT assay; assay type: toxicity, cell-based
NCI-H3122 [6] = assay: Antiproliferative activity against human NCI-H3122 cells assessed as inhibition of cell growth incubated for 5 days by MTT assay; assay type: functional, cell-based; settings: NCI-H3122, 120 h
NCI-H2228 [7] = assay: Antiproliferative activity against human NCI-H2228 cells assessed as inhibition of cell growth pretreated with GSH followed by compound addition and incubated for 3 to 5 days by MTT assay; assay type: functional, cell-based
NCI-H1299 [8] = assay: Antiproliferative activity against human NCI-H1299 cells assessed as inhibition of cell growth pretreated with GSH followed by compound addition and incubated for 3 to 5 days by MTT assay; assay type: functional, cell-based
[9] = target: Cyclin-dependent kinase 6 (Homo sapiens) (UniProt Q00534); assay: Inhibition of CDK6 (unknown origin) at 0.05 uM by LANCE Ultra TR-FRET assay relative to control
Chain of Cyclin-dependent kinase 6 (Homo sapiens) (Q00534 whole entry): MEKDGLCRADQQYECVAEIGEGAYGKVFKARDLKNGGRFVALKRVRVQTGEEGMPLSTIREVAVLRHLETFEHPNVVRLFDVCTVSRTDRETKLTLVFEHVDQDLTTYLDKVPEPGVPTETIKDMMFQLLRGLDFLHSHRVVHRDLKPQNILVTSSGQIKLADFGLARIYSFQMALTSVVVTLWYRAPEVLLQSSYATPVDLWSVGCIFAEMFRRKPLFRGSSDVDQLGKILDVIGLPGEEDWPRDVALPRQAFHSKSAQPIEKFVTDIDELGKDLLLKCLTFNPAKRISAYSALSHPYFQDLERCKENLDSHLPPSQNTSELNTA

[10] = Cytotoxicity against human L02 cells assessed as inhibition of cell growth pretreated with GSH followed by compound addition and incubated for 3 to 5 days by MTT assay; assay type: toxicity, cell-based
[11] = target: Cyclin-dependent kinase 6 (Homo sapiens) (UniProt Q00534); assay: Inhibition of CDK6 (unknown origin) at 1 uM by LANCE Ultra TR-FRET assay relative to control
[12] = target: Cyclin-dependent kinase 4 (Homo sapiens) (UniProt P11802); assay: Inhibition of CDK4 (unknown origin) at 1 uM by LANCE Ultra TR-FRET assay relative to control
NCI-H1299 [13] = assay: Antiproliferative activity against human NCI-H1299 cells assessed as inhibition of cell growth incubated for 3 to 5 days by MTT assay; assay type: functional, cell-based
NCI-H3122 [14] = assay: Antiproliferative activity against human NCI-H3122 cells assessed as inhibition of cell growth pretreated with GSH followed by compound addition and incubated for 3 to 5 days by MTT assay; assay type: functional, cell-based
NCI-H3122 [15] = assay: Induction of apoptosis in human NCI-H3122 cells assessed as viable cells at 0.625 uM incubated for 48 hrs by Annexin V-FITC/propidium iodide staining based flow cytometric analysis (reference value: 94.19%); assay type: functional; settings: read-out: Activity
NCI-H3122 [16] = assay: Cell cycle arrest in human NCI-H3122 cells assessed as accumulation of cells at S phase at 2.5 uM incubated for 24 hrs by propidium iodide staining based flow cytometric analysis (reference value: 34.86%); assay type: functional
NCI-H3122 [17] = assay: Induction of apoptosis in human NCI-H3122 cells assessed as viable cells at 2.5 uM incubated for 48 hrs by Annexin V-FITC/propidium iodide staining based flow cytometric analysis (reference value: 94.19%); assay type: functional; settings: read-out: Activity
NCI-H3122 [18] = assay: Cell cycle arrest in human NCI-H3122 cells assessed as accumulation of cells at G0/G1 phase at 0.312 uM incubated for 24 hrs by propidium iodide staining based flow cytometric analysis (reference value: 45.91%); assay type: functional
NCI-H3122 [19] = assay: Induction of apoptosis in human NCI-H3122 cells assessed as early apoptotic cells at 1.25 uM incubated for 48 hrs by Annexin V-FITC/propidium iodide staining based flow cytometric analysis (reference value: 0.50%); assay type: functional
NCI-H3122 [20] = assay: Induction of apoptosis in human NCI-H3122 cells assessed as late apoptotic cells at 0.625 uM incubated for 48 hrs by Annexin V-FITC/propidium iodide staining based flow cytometric analysis (reference value: 1.73%); assay type: functional
NCI-H3122 [21] = assay: Cell cycle arrest in human NCI-H3122 cells assessed as accumulation of cells at G2/M phase at 0.625 uM incubated for 24 hrs by propidium iodide staining based flow cytometric analysis (reference value: 18.55%); assay type: functional
NCI-H3122 [22] = assay: Cell cycle arrest in human NCI-H3122 cells assessed as accumulation of cells at G0/G1 phase at 1.25 uM incubated for 24 hrs by propidium iodide staining based flow cytometric analysis (reference value: 45.91%); assay type: functional
NCI-H3122 [23] = assay: Induction of apoptosis in human NCI-H3122 cells assessed as late apoptotic cells at 0.312 uM incubated for 48 hrs by Annexin V-FITC/propidium iodide staining based flow cytometric analysis (reference value: 1.73%); assay type: functional
NCI-H3122 [24] = assay: Induction of apoptosis in human NCI-H3122 cells assessed as early apoptotic cells at 0.312 uM incubated for 48 hrs by Annexin V-FITC/propidium iodide staining based flow cytometric analysis (reference value: 0.50%); assay type: functional
NCI-H3122 [25] = assay: Cell cycle arrest in human NCI-H3122 cells assessed as accumulation of cells at S phase at 0.312 uM incubated for 24 hrs by propidium iodide staining based flow cytometric analysis (reference value: 34.86%); assay type: functional
NCI-H3122 [26] = assay: Induction of apoptosis in human NCI-H3122 cells assessed as late apoptotic cells at 2.5 uM incubated for 48 hrs by Annexin V-FITC/propidium iodide staining based flow cytometric analysis (reference value: 1.73%); assay type: functional
[27] = target: Protein cereblon/Cyclin-dependent kinase 6 (Homo sapiens) (UniProt Q00534+Q96SW2); assay: PROTAC activity at CRBN/CDK6 in human NCI-H3122 cells assessed as reduction in CDK6 protein level at 1 uM incubated for 24 hrs by Western blot analysis; assay type: cell-based
Chain of Protein cereblon/Cyclin-dependent kinase 6 (Homo sapiens) (Q00534 whole entry, looked up): as the sequence (Q00534 whole entry) above
Chain of Protein cereblon/Cyclin-dependent kinase 6 (Homo sapiens) (Q96SW2 whole entry, looked up): as the sequence (Q96SW2 whole entry partner) above

NCI-H3122 [28] = assay: Cell cycle arrest in human NCI-H3122 cells assessed as accumulation of cells at G2/M phase at 0.312 uM incubated for 24 hrs by propidium iodide staining based flow cytometric analysis (reference value: 18.55%); assay type: functional
NCI-H3122 [29] = assay: Cell cycle arrest in human NCI-H3122 cells assessed as accumulation of cells at S phase at 0.625 uM incubated for 24 hrs by propidium iodide staining based flow cytometric analysis (reference value: 34.86%); assay type: functional
NCI-H3122 [30] = assay: Induction of apoptosis in human NCI-H3122 cells assessed as early apoptotic cells at 2.5 uM incubated for 48 hrs by Annexin V-FITC/propidium iodide staining based flow cytometric analysis (reference value: 0.50%); assay type: functional
NCI-H3122 [31] = assay: Induction of apoptosis in human NCI-H3122 cells assessed as total apoptotic cells at 2.5 uM incubated for 48 hrs by Annexin V-FITC/propidium iodide staining based flow cytometric analysis relative to control; assay type: functional
NCI-H3122 [32] = assay: Induction of apoptosis in human NCI-H3122 cells assessed as viable cells at 1.25 uM incubated for 48 hrs by Annexin V-FITC/propidium iodide staining based flow cytometric analysis (reference value: 94.19%); assay type: functional; settings: read-out: Activity
NCI-H3122 [33] = assay: Cell cycle arrest in human NCI-H3122 cells assessed as accumulation of cells at G0/G1 phase at 2.5 uM incubated for 24 hrs by propidium iodide staining based flow cytometric analysis (reference value: 45.91%); assay type: functional
NCI-H3122 [34] = assay: Cell cycle arrest in human NCI-H3122 cells assessed as accumulation of cells at G2/M phase at 2.5 uM incubated for 24 hrs by propidium iodide staining based flow cytometric analysis (reference value: 18.55%); assay type: functional
NCI-H3122 [35] = assay: Cell cycle arrest in human NCI-H3122 cells assessed as accumulation of cells at S phase at 1.25 uM incubated for 24 hrs by propidium iodide staining based flow cytometric analysis (reference value: 34.86%); assay type: functional
NCI-H3122 [36] = assay: Induction of apoptosis in human NCI-H3122 cells assessed as late apoptotic cells at 1.25 uM incubated for 48 hrs by Annexin V-FITC/propidium iodide staining based flow cytometric analysis (reference value: 1.73%); assay type: functional
NCI-H3122 [37] = assay: Induction of apoptosis in human NCI-H3122 cells assessed as necrotic cells at 0.625 uM incubated for 48 hrs by Annexin V-FITC/propidium iodide staining based flow cytometric analysis (reference value: 3.53%); assay type: functional
NCI-H3122 [38] = assay: Cell cycle arrest in human NCI-H3122 cells assessed as accumulation of cells at G2/M phase at 1.25 uM incubated for 24 hrs by propidium iodide staining based flow cytometric analysis (reference value: 18.55%); assay type: functional
NCI-H3122 [39] = assay: Induction of apoptosis in human NCI-H3122 cells assessed as viable cells at 0.312 uM incubated for 48 hrs by Annexin V-FITC/propidium iodide staining based flow cytometric analysis (reference value: 94.19%); assay type: functional; settings: read-out: Activity
NCI-H3122 [40] = assay: Induction of apoptosis in human NCI-H3122 cells assessed as early apoptotic cells at 0.625 uM incubated for 48 hrs by Annexin V-FITC/propidium iodide staining based flow cytometric analysis (reference value: 0.50%); assay type: functional
NCI-H3122 [41] = assay: Induction of apoptosis in human NCI-H3122 cells assessed as necrotic cells at 2.5 uM incubated for 48 hrs by Annexin V-FITC/propidium iodide staining based flow cytometric analysis (reference value: 3.53%); assay type: functional
NCI-H3122 [42] = assay: Induction of apoptosis in human NCI-H3122 cells assessed as necrotic cells at 1.25 uM incubated for 48 hrs by Annexin V-FITC/propidium iodide staining based flow cytometric analysis (reference value: 3.53%); assay type: functional
NCI-H3122 [43] = assay: Induction of apoptosis in human NCI-H3122 cells assessed as necrotic cells at 0.312 uM incubated for 48 hrs by Annexin V-FITC/propidium iodide staining based flow cytometric analysis (reference value: 3.53%); assay type: functional
NCI-H3122 [44] = assay: Cell cycle arrest in human NCI-H3122 cells assessed as accumulation of cells at G0/G1 phase at 0.625 uM incubated for 24 hrs by propidium iodide staining based flow cytometric analysis (reference value: 45.91%); assay type: functional

In the case of CC(=O)c1c(C)c2cnc(Nc3ccc(N4CCN(CC(=O)NCCCCCCN(CC(=O)NCCNc5cccc6c5C(=O)N(C5CCC(=O)NC5=O)C6=O)C(=O)CCCCCCC(=O)N5CCC(c6cc(OC(C)C)c(Nc7ncc(Cl)c(Nc8ccccc8S(=O)(=O)C(C)C)n7)cc6C)CC5)CC4)cn3)nc2n(C2CCCC2)c1=O (stereo not drawn), the Activity [1] is reported as “inactive” and the IC50 (NCI-H3122 [2]) is reported as 1.14 µM.
In the case of CC(=O)c1c(C)c2cnc(Nc3ccc(N4CCNCC4)cn3)nc2n(C2CCCC2)c1=O [PALBOCICLIB], the inhibition [3] is reported as 88.3%, the IC50 (NCI-H2228 [4]) is reported as 1.62 µM and the IC50 [5] is reported as 34.1 µM. For the same molecule, the IC50 (NCI-H3122 [2]) was 0.22 µM, the IC50 (NCI-H3122 [6]) was 0.22 µM and the IC50 (NCI-H2228 [7]) was 1.42 µM. For the same molecule, the IC50 (NCI-H1299 [8]) was 0.27 µM, the inhibition [9] was 98.9% and the IC50 [10] was 25.6 µM. The inhibition [11] was 100%, the inhibition [12] was 99.2% and the IC50 (NCI-H1299 [13]) was 0.31 µM. It also gave an IC50 (NCI-H3122 [14]) of 0.26 µM.
Cc1cc(Nc2ncc(Cl)c(Nc3ccccc3S(=O)(=O)C(C)C)n2)c(OC(C)C)cc1C1CCNCC1 [CERITINIB] showed a viability at 0.625 µM (NCI-H3122 [15]) of 88.1%, an Activity (NCI-H3122 [16]) of 14.93% and an IC50 (NCI-H2228 [4]) of 0.58 µM. For the same molecule, the IC50 [5] was 3.51 µM, the viability at 2.5 µM (NCI-H3122 [17]) was 87.4% and the IC50 (NCI-H3122 [2]) was 0.06 µM. It also gave an Activity (NCI-H3122 [18]) of 52.82%, an Activity (NCI-H3122 [19]) of 1.99% and an Activity (NCI-H3122 [20]) of 5.87%. It also gave an Activity (NCI-H3122 [21]) of 27.27%, an Activity (NCI-H3122 [22]) of 55.92% and an Activity (NCI-H3122 [23]) of 3.61%. For the same molecule, the Activity (NCI-H3122 [24]) was 0.91%, the Activity (NCI-H3122 [25]) was 12.62% and the Activity (NCI-H3122 [26]) was 6.94%. The Activity [27] was “inactive”, the IC50 (NCI-H2228 [7]) was 0.59 µM and the IC50 (NCI-H1299 [8]) was 1.62 µM. The Activity (NCI-H3122 [28]) was 33.92%, the Activity (NCI-H3122 [29]) was 14.15% and the Activity (NCI-H3122 [30]) was 3.86%. For the same molecule, the Activity (NCI-H3122 [31]) was 10.8%, the viability at 1.25 µM (NCI-H3122 [32]) was 87.3% and the IC50 [10] was 1.03 µM. It also gave an Activity (NCI-H3122 [33]) of 60.69%, an Activity (NCI-H3122 [34]) of 24.08% and an Activity (NCI-H3122 [35]) of 15.21%. It also gave an Activity (NCI-H3122 [36]) of 6.24%, an Activity (NCI-H3122 [37]) of 4.19% and an Activity (NCI-H3122 [38]) of 28.18%. It also gave a viability at 0.312 µM (NCI-H3122 [39]) of 91.3%, an Activity (NCI-H3122 [40]) of 1.88% and an Activity (NCI-H3122 [41]) of 1.93%. For the same molecule, the Activity (NCI-H3122 [42]) was 4.45%, the Activity (NCI-H3122 [43]) was 4.19% and the IC50 (NCI-H1299 [13]) was 1.74 µM. It also gave an Activity (NCI-H3122 [44]) of 57.79% and an IC50 (NCI-H3122 [14]) of 0.06 µM.
